Patent US4221909A, “P-Acetamidobenzoic acid salts of 9-(hydroxyalkyl) purines” (Sloan-Kettering Institute for Cancer Research, priority 1978, dated 1980)

Tests used:
Type in all cases: cell-based
[1] = tested on: Influenza A USSR/90(H1 N1); test: Anti-Influenza Activity (Hemadsorption Assay), Influenza A USSR/90
Procedure: Upon infection of a monolayer of tissue culture cells by influenza virus, the cell surface is altered so that guinea pig erythrocytes can be adsorbed to the cell surface. The number of foci of adsorbed cells (hemadsorption foci forming units HAFFU) is a quantitative measure of infectivity. The method is as follows.
The monolayers were subcultured in the following manner: The medium was poured off, and the monolayer washed two times with approximately 50 ml per wash of calcium and magnesium free phosphate buffered saline (PBS), (GIBCO #419) at a pH of 7.2. One ml of trypsin-EDTA solution (GIBCO #530L) containing 0.5 g trypsin (1:250) and 2.0 g EDTA/liter of Modified Puck's Saline A was added at 37° C. to each flask and dispersed over the monolayer with gentle shaking. The flasks were then placed in an incubator at 37° C. for approximately 3-5 minutes depending on the time required to dislodge the cells. Occasional shaking was required. Ten ml of planting medium was added to each flask and the cells dispersed by aspirating and expelling the suspension from the pipette. The contents of a series of flasks were pooled and the cells in the suspension were diluted with planting medium to 7-8.5×10^4 cells/ml. The planting medium consisted of the following composition: Minimum Essential Medium Eagles (MEM) with Earle's salts and HEPES buffer (GIBCO #236) supplemented by adding the following substances as specified to 87 ml of MEM:
The following day the medium was removed and replaced with fresh planting medium. The monolayers were used for experimentation when they reached a condition in which they were almost confluent (approximately 3-4 days).
When the Linbro tray HeLa cell cultures were ready for experimentation (see cells), the medium was decanted and 1 ml of maintenance medium (MEM with FCS reduced to 3%) containing the compound being tested at a given concentration was added to 4 replicate cultures within a tray.
A series of different drug concentrations ranging from 2.3 to 150 μg/ml were used. Maintenance medium alone was used for control cultures. After the administration of drug and control medium, 0.1 ml of the diluted viral suspension was added to experimental groups and infected control cultures. Saline alone was added to non-infected control cultures. The Linbro trays were then incubated at 37° C. for 18 hours, after which media in all groups was aspirated. Each culture was washed once with PBS. The saline was aspirated and 0.5 ml of a 0.4% v/v guinea pig red blood cell suspension in PBS was added to each culture well. The cultures remained at room temperature for 30 minutes after which the medium was decanted and culture washed […] with PBS to remove all but the specifically bound red cells. After the third wash, maintenance medium was added to all cultures.
A Howard Micrometer eyepiece (C8385) was inserted within the ocular of a Nikon inverted phase contrast microscope. Each culture was scanned with a 4× low paper objective and direct counts of hemadsorbed red cells were counted using the eyepiece grid as a field marker. Partial or complete fields were counted per experimental group depending on the resulting number and density of hemadsorbed cells in the infected control cultures. Magnification of 60× or 150× were chosen to obtain the best conditions for enumerating the hemadsorbed cells. Field factors were calculated for counting hemadsorption at 60× and 150×. At 60× magnification, total field count was calculated using a multiplication factor of 55.5. At 150× magnification the multiplication factor was 273. The multiplication factors of 55.5 and 273 represent the total number of fields at 60× and 150× magnifications, respectively. The number of fields counted ranged from 3 to 5 per well with 3 to 4 wells per treatment group employed (see raw data tables in results section for number of fields examined). Means and standard errors were calculated and the data was evaluated using student's t-test analysis.

influenza virus = test: Anti-influenza activity (summary)
[2] = tested on: human peripheral blood lymphocytes; test: Mitogen Induced (PHA) Human Lymphocyte Proliferation
[3] = tested on: guinea pig peritoneal macrophages; test: Lymphokine Induced (MMF) Guinea Pig Macrophage Proliferation
Text: (§1) The following three assay procedures are used to evaluate the ability of the test substances to modulate the activity of several classes of cells in the immune system. In these systems it is possible to identify both immunopotentiating activity (evidence by an enhancement of the parameter examined) as well as immunosuppressant activity (evidenced by an inhibition of the parameter examined).
3. The macrophage represents a subpopulation of white blood cells which is an important component of the immune system in control of both cellular and humoral immunity. The assay system described below evaluates the substances studied as potentiators of macrophage function.
Phytohemagglutinin(PHA) (HA-17) was purchased from Burroughs Wellcome. A preparation containing Macrophage Mitogen Factor (MMF) and Macrophage Activating Factor (MAF) was prepared from antigen-stimulated immune lymph node lymphocytes (guinea pig) as previously described by Hadden et al, Nature 257, 483-485 (1975). […] The active fraction was employed in both the proliferation and activation assays.
Ficoll-hypaque purified human peripheral blood lymphocytes were prepared and PHA-induced lymphocyte proliferation was assayed by the incorporation of tritiated thymidine as described in Hadden et al, Cell. Immunol. 20, 98-103 (1975). Each compound was analyzed in the presence of suboptimal, optimal and supraoptimal concentrations of PHA (0.001, 0.01, 0.1 units/ml respectively). Paraffin oil-induced guinea pig peritoneal macrophages were prepared and incubated as monolayer culture (>98% pure macrophages). Lymphokine (MMF)-induced proliferation was assayed by the incorporation of triturated thymidine at 3 and 5 days of culture as described, Hadden et al, Nature 257, 483-485 (1975). Lymphokine (MAF)-induced macrophage activation to kill Listeria monocytogenes following 5 days of culture in the presence or absence of MAF was performed during a 6 hour period as described in Hadden and England, Immunopharmacology, pages 87-100 (Plenum Press, 1977). Phagocytosis was quantitated during a 20-minute exposure to Listeria monocytogenes by counting the number of macrophages containing bacteria and the number of bacteria per phagocytic cell on gram stained monolayers in Labtek chambers. Intracellular killing of bacteria was evaluated by counting the number of cells containing bacteria and the number of bacteria/cell 6 hours after the initial 20 minute exposure. Parallel experiments in which macrophages were lysed and intracellular bacteria were cultured confirm the validity of bacterial activity determined by this manner in this sytem. The drugs were employed in each of the three systems over serial log concentration range in triplicate in the presence and absence of mitogen or lymphokine. Each type of experiment was performed at least three times. Previous experiments indicate a parallelism of response to pharmacologic modulation in the proliferation and activation assays.

Mouse spleen cells = test: Mitogen Induced (Con A) Mouse Lymphocyte Proliferation
Text: as §1
1. Mitogen--Induced Mouse Spleen Cell Assay--Mouse spleen cells contain a population of both B and T lymphocytes which can be stimulated by a number of foreign substances (e.g., plant mitogens such as Con A) to proliferate. This enhanced proliferation is an indication of enhanced cell mediated immunity. The method below describes the system used to evaluate test substances as immunopotentiators.
Concanavalin A (Calbiochem, La Jolla, Calif.), Lot #210073, lyophilized in NaCl, was prepared first as a 1% solution and diluted as a 2× concentration for each dilution (0.5, 1.0, 2.5 μg/ml).
Six to eight week old male Balb/c and C3 H inbred mice were obtained from the following sources: Flow Research Animals, Inc., Dublin, Va.; Charles River Breeding Laboratories, Wilmington, Mass.; Laboratory Supply Company, Indianapolis, Ind.; and Lionel Strong Foundation, San Diego, Calif.
Three to five mice were sacrificed by cervical dislocation and the spleens aseptically removed. Pooled spleens were minced and teased with sterile forceps; then strained through a double layer of nylon mesh. The cell suspension was washed once with 15 ml of RPMI 1640 supplemented with 5% fetal calf serum and antibiotics. Cells were cultured at a concentration of 10^6 cells/0.1 ml/well in micro-plates. Cultures were incubated in the presence or absence of mitogen in a humidified atmosphere containing 5% CO2 for 48 hours. The test compound was added to cultures at various concentrations concommitant with mitogen.
Proliferation was assayed by the degree of incorporation of 1.0 μCi of [^3 H] thymidine over an 18 hour incubation period. Cultures were harvested by a MASH unit (Otto Hiller Co., Madison, Wisconsin) and thymidine incorporation was assayed by liquid scintillation spectrometry. Cultures were performed in triplicate and data are expressed as means plus or minus the strandard error of the experimental means. Drug stimulation indices over control values were also calculated and portrayed graphically.

SMILES	DIP.PAcBA potentiation of Anti-Influenza activity (influenza virus)	Maximum Percent Change, Mitogen Induced (PHA) Human Lymph. Prolif. ([2]; 1.0-10)	Maximum Percent Change, Mitogen Induced (PHA) Human Lymph. Prolif. ([2]; 10-100)	Maximum Percent Change, Mitogen Induced (PHA) Human Lymph. Prolif. ([2]; .01-1.0)	Maximum Percent Change, Mitogen Induced (Con A) Mouse Lymph. Prolif. (Mouse spleen cells; 1.0-10)	Maximum Percent Change, Mitogen Induced (Con A) Mouse Lymph. Prolif. (Mouse spleen cells; 10-100)	Maximum Percent Change, Mitogen Induced (Con A) Mouse Lymph. Prolif. (Mouse spleen cells; .01-1.0)	also measured
CC(O)Cn1cnc2c(=O)[nH]cnc21 (centres unmarked) [NPT 15447]	Yes							% Inhibition of Hemadsorption Foci ([1]; Conc. 10-100 μg/ml, listed as 15447): 26%; % Inhibition of Hemadsorption Foci ([1]; Conc. <10 μg/ml, listed as 15447): 10%; % Inhibition of Hemadsorption Foci ([1]; Conc. >100 μg/ml, listed as 15447): 34%
CC(=O)Nc1ccc(C(=O)O)cc1.CC(O)CN(C)C [compound 15110, dimethylamino-2-propanol-p-acetamido benzoate, reference compound]								% Inhibition of Hemadsorption Foci ([1]; Conc. 10-100 μg/ml): 0%; % Inhibition of Hemadsorption Foci ([1]; Conc. <10 μg/ml): 0%; % Inhibition of Hemadsorption Foci ([1]; Conc. >100 μg/ml): 20%
CC(O)Cn1cnc2c(=O)[nH]cnc21 (centres unmarked) [NPT 15446, 9-(2-HYDROXY-1-PROPYL)HYDROXANTHINE]		0%	0%	0%	12%	0%	6%	% Inhibition of Hemadsorption Foci ([1]; Conc. 10-100 μg/ml, listed as 15446): 0%; % Inhibition of Hemadsorption Foci ([1]; Conc. <10 μg/ml, listed as 15446): 2%; % Inhibition of Hemadsorption Foci ([1]; Conc. >100 μg/ml, listed as 15446): 0%; Maximum Percent Change, Lymphokine Induced (MMF) Guinea Pig Mac. Prolif. ([3]; 1.0-10): 0%; Maximum Percent Change, Lymphokine Induced (MMF) Guinea Pig Mac. Prolif. ([3]; 10-100): 0%; Maximum Percent Change, Lymphokine Induced (MMF) Guinea Pig Mac. Prolif. ([3]; .01-1.0): 0%
CC(CO)n1cnc2c(=O)[nH]cnc21 (centres unmarked) [NPT 15444]	Yes							% Inhibition of Hemadsorption Foci ([1]; Conc. 10-100 μg/ml, listed as 15444): 44%; % Inhibition of Hemadsorption Foci ([1]; Conc. >100 μg/ml, listed as 15444): 54%
CC(CO)n1cnc2c(Cl)ncnc21 (centres unmarked) [NPT 15423, 9-(1-HYDROXY-2-PROPANE)-6-CHLOROPURINE]								inhibition ([1]; Influenza A virus, Conc. 10-100 μg/ml, read-out: % Inhibition of Hemadsorption Foci): 13%
CC(CO)n1cnc2c(N)ncnc21 (centres unmarked) [NPT 15434]	Yes							% Inhibition of Hemadsorption Foci ([1]; Conc. 10-100 μg/ml): 41%; % Inhibition of Hemadsorption Foci ([1]; Conc. >100 μg/ml, listed as 15434): 62%
CC(CO)n1cnc2c(=O)[nH]cnc21 (centres unmarked) [NPT 15443, 9-(1-HYDROXY-2-PROPYL)HYPOXANTHINE]		+13%	0%	0%	+27%	+27%	+17%	% Inhibition of Hemadsorption Foci ([1]; Conc. 10-100 μg/ml, listed as 15443): 0%; % Inhibition of Hemadsorption Foci ([1]; Conc. >100 μg/ml, listed as 15443): 0%; Maximum Percent Change, Lymphokine Induced (MMF) Guinea Pig Mac. Prolif. ([3]; 1.0-10): 0%; Maximum Percent Change, Lymphokine Induced (MMF) Guinea Pig Mac. Prolif. ([3]; .01-1.0): +20%
CC(CO)n1cnc2c(N)ncnc21 (centres unmarked) [NPT 15433, 9-(1-HYDROXY-2-PROPYL)ADENINE]		0%	-50%	53%	-23%	-65%	+15%	% Inhibition of Hemadsorption Foci ([1]; Conc. >100 μg/ml, listed as 15433): 0%
CC(O)Cn1cnc2c(N)ncnc21 (centres unmarked) [NPT 15431, 9-(2-HYDROXY-1-PROPYL)ADENINE]		0%	0%	0%	-27%	-47%	-15%	% Inhibition of Hemadsorption Foci ([1]; Conc. 10-100 μg/ml, listed as 15431): 22%; % Inhibition of Hemadsorption Foci ([1]; Conc. >100 μg/ml, listed as 15431): 0%
CC(O)Cn1cnc2c(N)ncnc21 (centres unmarked) [NPT 15432]	Yes							% Inhibition of Hemadsorption Foci ([1]; Conc. 10-100 μg/ml, listed as 15432): 48%; % Inhibition of Hemadsorption Foci ([1]; Conc. >100 μg/ml, listed as 15432): 62%
OCCn1cnc2c(S)ncnc21 [NPT 15437]	Yes							% Inhibition of Hemadsorption Foci ([1]; Conc. 10-100 μg/ml): 65%; % Inhibition of Hemadsorption Foci ([1]; Conc. >100 μg/ml, listed as 15437): 65%
O=c1[nH]cnc2c1ncn2CCO [NPT 15425, 9-HYDROXYETHYL HYPOXANTHINE]		0%	0%	100%	0%		11%	
